Consider 8 compounds from PubChem BioAssay (NCI).

Some test systems named below: OVCAR-4 ovarian; RXF 393 renal; NCI-H460 lung; MOLT-4 leukemia; CAKI-1 renal; IGROV1 ovarian; UACC-62 melanoma; SK-MEL-28 melanoma; SNB-75 CNS; U251 CNS.
What all share (assay): growth of human tumour cells (NCI), 48 h

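Values below derive from 48-hour exposures of cells grown in 96-well plates, with endpoints linearly interpolated between the two concentrations bracketing the appropriate inhibition level. At the GI50, growth is halved. TGI: concentration producing complete growth inhibition.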

On to `NC(N)=NC(N)=Nc1ccc(C(=O)O)cc1`, for which the TGI with OVCAR-4 ovarian, in the experiment with RXF 393 renal, in the experiment on NCI-H460 lung, with MOLT-4 leukemia, in the experiment with CAKI-1 renal and in the experiment with IGROV1 ovarian was more than 100 µM throughout. In addition, the TGI in the experiment on UACC-62 melanoma, in the experiment with SK-MEL-28 melanoma, in the experiment on SNB-75 CNS and in the experiment with U251 CNS was more than 100 µM throughout.
`COC(=O)/C(C#N)=C1\CCC(OC)N1C` (stereo not given): the TGI with OVCAR-4 ovarian, with RXF 393 renal, in the experiment on NCI-H460 lung, in the experiment on MOLT-4 leukemia, with CAKI-1 renal and with IGROV1 ovarian was more than 100 µM each time. For the same compound, the TGI in the experiment on UACC-62 melanoma, in the experiment on SK-MEL-28 melanoma, with SNB-75 CNS and in the experiment with U251 CNS was more than 100 µM in each case.
On to `CC1CCCC(C#N)(NOC2=NCCN2)C1` (stereo not given), for which the GI50 in the experiment on OVCAR-4 ovarian is 48.3 µM; in the experiment on RXF 393 renal it was 65.1 µM; in the experiment on NCI-H460 lung it was 43.3 µM; in the experiment with MOLT-4 leukemia it was 10.7 µM; with CAKI-1 renal, 22.7 µM; in the experiment on IGROV1 ovarian, 30.4 µM. Further, the GI50 is 26.4 µM in the experiment on UACC-62 melanoma, more than 100 µM in the experiment with SK-MEL-28 melanoma, 40.3 µM with SNB-75 CNS and 23.4 µM with U251 CNS. The TGI in the experiment with OVCAR-4 ovarian was more than 100 µM; with RXF 393 renal, more than 100 µM; in the experiment on NCI-H460 lung, more than 100 µM; in the experiment with MOLT-4 leukemia it was more than 100 µM; in the experiment with CAKI-1 renal, 79 µM; in the experiment with IGROV1 ovarian, more than 100 µM. In addition, the TGI was 94.8 µM in the experiment with UACC-62 melanoma, more than 100 µM in the experiment on SK-MEL-28 melanoma, more than 100 µM in the experiment on SNB-75 CNS and 78.7 µM in the experiment with U251 CNS.
In the case of `CCCCCCC(=O)C/C(CCC(=O)N(Cc1ccccc1)Cc1ccccc1)=N\NC(N)=O`, the TGI with OVCAR-4 ovarian, in the experiment with RXF 393 renal, in the experiment on NCI-H460 lung, in the experiment on MOLT-4 leukemia, with CAKI-1 renal and with IGROV1 ovarian was more than 100 µM in each case. Further, the TGI in the experiment on UACC-62 melanoma, in the experiment on SK-MEL-28 melanoma, in the experiment with SNB-75 CNS and in the experiment with U251 CNS was more than 100 µM each time.
Turning to `N#CC1=C(N)NC(N2CCOCC2)=NC12Nc1ccccc1O2` (stereo not given), the GI50 in the experiment with OVCAR-4 ovarian was more than 100 µM; with RXF 393 renal, 61.5 µM; with NCI-H460 lung, 46.1 µM; in the experiment with MOLT-4 leukemia it was 43 µM; in the experiment with CAKI-1 renal, 25.3 µM; with IGROV1 ovarian it was 9.47 µM. The GI50 in the experiment on UACC-62 melanoma was 53.9 µM; in the experiment on SK-MEL-28 melanoma, more than 100 µM; with SNB-75 CNS, more than 100 µM; with U251 CNS, 45.8 µM. Besides, the TGI in the experiment on OVCAR-4 ovarian was more than 100 µM; in the experiment on RXF 393 renal, more than 100 µM; in the experiment with NCI-H460 lung, more than 100 µM; with MOLT-4 leukemia, more than 100 µM; in the experiment on CAKI-1 renal, 86.7 µM; in the experiment on IGROV1 ovarian it was 57.5 µM. Further, the TGI in the experiment on UACC-62 melanoma, in the experiment with SK-MEL-28 melanoma, in the experiment with SNB-75 CNS and in the experiment with U251 CNS was more than 100 µM throughout.
Turning to `COc1cc2c(cc1OC)C(C(CBr)CBr)N(C1CCCC1)CC2` (stereo not given), the TGI with OVCAR-4 ovarian, in the experiment on RXF 393 renal, in the experiment on NCI-H460 lung, in the experiment on MOLT-4 leukemia, in the experiment with CAKI-1 renal and with IGROV1 ovarian was more than 100 µM each time. For the same compound, the TGI with UACC-62 melanoma, with SK-MEL-28 melanoma, in the experiment with SNB-75 CNS and in the experiment on U251 CNS was more than 100 µM in each case.
Turning to `CC(/C=C/C(=O)c1sc(C(N)=S)nc1C)=C\c1ccccc1`, the TGI in the experiment with OVCAR-4 ovarian is more than 100 µM; in the experiment with RXF 393 renal, more than 100 µM; in the experiment with NCI-H460 lung it was more than 100 µM; with MOLT-4 leukemia, more than 100 µM; with CAKI-1 renal, 56.4 µM; in the experiment with IGROV1 ovarian, more than 100 µM. In addition, the TGI in the experiment on UACC-62 melanoma, in the experiment with SK-MEL-28 melanoma, in the experiment on SNB-75 CNS and in the experiment on U251 CNS was more than 100 µM each time.
As for `O=C(O)COc1ccc(OCC(=O)O)cc1`, the GI50 with OVCAR-4 ovarian was 2.96 µM; in the experiment with RXF 393 renal, 0.97 µM; with NCI-H460 lung, 0.0609 µM; with MOLT-4 leukemia, 0.0557 µM; in the experiment on CAKI-1 renal, 22.2 µM; in the experiment with IGROV1 ovarian it was 1.8 µM. Further, the GI50 is 0.326 µM in the experiment on UACC-62 melanoma, 3.36 µM in the experiment on SK-MEL-28 melanoma, 0.684 µM in the experiment on SNB-75 CNS and 0.251 µM in the experiment with U251 CNS. The TGI in the experiment with OVCAR-4 ovarian was 20.3 µM; in the experiment with RXF 393 renal, 4.64 µM; in the experiment with NCI-H460 lung, 1.51 µM; with MOLT-4 leukemia it was 23.5 µM; with CAKI-1 renal it was more than 100 µM; in the experiment on IGROV1 ovarian it was 33 µM. In addition, the TGI in the experiment on UACC-62 melanoma was 2.9 µM; in the experiment on SK-MEL-28 melanoma, 17 µM; in the experiment on SNB-75 CNS it was 10.1 µM; with U251 CNS, 2.47 µM.
